ChEMBL document CHEMBL3507680, “University of Dundee, Gates Library screen for HepG2 cell viability”

Assay: Human HepG2 cell viability assay in 384 well format
Type: toxicity, cell-based
Set-up: dose 125 nL, time 70.5 hour; cytotoxicity at 70.5 h: concentration not given beside the values
Settings: HepG2 cells, read-out: Inhibition

| SMILES | cytotoxicity at 70.5 h [%] |
| --- | --- |
| Cc1nccn1Cc1nnc(C2CCCN(c3ncccc3F)C2)n1C (configuration not stated) | -17.5 |
| CC(C)CN1C[C@H]2N(c3ncccn3)CCC[C@@]2(C(=O)NCC2CC2)C1 | -3.44 |
| Cc1cc(CN[C@H](C(N)=O)[C@@H](C)O)c(C)s1 | -3.69 |
| Cc1ccc(CNC2CCCN(Cc3noc(C4CC4)n3)C2)s1 (configuration not stated) | 28.4 |
| OC[C@@H]1CN2CCN(c3ccccn3)C[C@@H]2[C@H]1c1ccccc1 | -7.31 |
| O=C1Nc2ccccc2C12CCN(Cc1ccccn1)CC2 | 0.291 |
| CC(CNC(=O)N1CCNC(=O)CC1)Cc1cccs1 (configuration not stated) | 0.139 |
| Cn1cnnc1C1CCN(c2cncc(-n3cccn3)n2)CC1 | 1.11 |
| N#Cc1ncn(CCC(=O)Nc2cccc(Cl)c2)n1 | -8.53 |
| CO[C@H]1COCCN(C(=O)c2ccc(F)cc2)C1 | -3.92 |
| O=c1ccc(-n2cccn2)nn1CCNS(=O)(=O)c1ccc(F)c(Cl)c1 | 2.64 |
| COc1ccccc1C(=O)NCCC(=O)Nc1c(C)nn(C)c1C | -12.6 |
| Cn1cc(CCNC(=O)NCc2ccc3c(c2)OCCO3)cn1 | 2.32 |
| Cc1ncsc1C(=O)NC1CCN(CCC(=O)Nc2ccccc2)CC1 | -1.32 |
| COc1cccc(-c2noc(C3CCN(CC(N)=O)C3)n2)c1 (configuration not stated) | -4.11 |
| CC(=O)N1CCC2(CC1)[C@@H]1CN(C(=O)N(C)C)C[C@@H]1C(=O)N2C | -7.5 |
| CN(C)C(=O)C1CCN(C2CCN(CC3CC3)CC2)CC1 | -5.51 |
| O=S(=O)(CCCN1CCCCC1Cn1cncn1)c1ccccc1 (configuration not stated) | -4.13 |
| O=C(N[C@@H]1CCNC[C@H]1O)c1ccccc1OC(F)(F)C(F)F | 0.818 |
| CC1CCN(C)c2ccccc2N1C(=O)c1ccnc(-n2cncn2)c1 (configuration not stated) | 2.2 |
| COc1ccc(CC(=O)Nc2cccnc2N2CCCC2)cc1OC | -1.14 |
| CN(CC(C)(CO)CO)C(=O)Nc1cc(F)cc(F)c1 | 2.39 |
| OCCN1CCN(CC(O)c2ccc(C(F)(F)F)cc2)CC1 (configuration not stated) | 33.3 |

| SMILES | cytotoxicity at 70.5 h [%] |
| --- | --- |
| Cc1nn(C)c(C)c1CN(Cc1cccn1-c1cccnc1)C(C)C | 11.8 |
| O=C(Cc1ccn[nH]1)N1CCc2cc(Br)sc2C1 | -6.46 |
| COc1ccc(-c2cnc(N(C)C)nc2C2CN(C(C)=O)CCO2)cc1 (configuration not stated) | -11.5 |
| CC(C)N1CCCCC1c1nc(N(C)C)ncc1I (configuration not stated) | 23.9 |
| CC(C)N1CCC(Nc2ccn(Cc3ccccn3)n2)C1=O (configuration not stated) | 1.71 |
| CC(NC(=O)CCCC(=O)c1cccs1)c1nnc2n1CCC2 (configuration not stated) | -9.34 |
| CCCn1ccc(C(=O)N2CCOC(c3nc(-c4cccs4)no3)C2)n1 (configuration not stated) | 4.34 |
| CCC(=O)N1CCN(c2ccc(C(=O)OC)cc2)CC1C (configuration not stated) | -0.474 |
| O=C1CC(C(=O)Nc2nnc(-c3ccccn3)[nH]2)c2ccccc2N1 (configuration not stated) | 6.91 |
| Cc1cc(C)n(CC2CCCN2CCCc2nc3ccccc3o2)n1 (configuration not stated) | -1.67 |
| CCC(C(=O)NCc1ccccn1)N(c1cccc(C)c1)S(C)(=O)=O (configuration not stated) | -1.44 |
| Cn1ccnc1CCNC(=O)NCCC1CCCCO1 (configuration not stated) | -2.69 |
| Cc1ccc(N2CCO[C@H]3[C@H](OCC(=O)N4CCCC4)CC[C@@H]32)cc1 | -1.99 |
| CN(C)C(=O)NC1COC2(CCN(Cc3ccccc3)CC2)C1 (configuration not stated) | 27.7 |
| CC(C)N(C)[C@@H]1CCN(S(C)(=O)=O)[C@H]1Cc1ccccc1 | -3.3 |
| O=C1[C@H]2CN(C3CCOCC3)C[C@H]2CN1Cc1cccnc1 | 3.06 |
| COc1ccc(CN2C[C@@H]3CC[C@H](C2)N(S(=O)(=O)C2CC2)C3)cc1 | -5.41 |
| Cc1nc[nH]c1CN1C[C@@H]2CC[C@H](C1)N(C(=O)c1cnn(C)c1)C2 | 7.73 |
| Cc1nc(C(=O)N2CCCC(c3ccc4sc(N)nc4n3)C2)co1 (configuration not stated) | -7.73 |
| Cc1nc(CN2CCCC(NCCOCC(F)(F)F)C2)no1 (configuration not stated) | 24.6 |
| Cc1noc(C)c1CN(C)C(=O)CCOc1ccc(Cl)cc1 | -11.7 |
| O=S(=O)(C1CC1)N1CCc2c(CN3CCOCC3)cncc2C1 | -2.38 |
| CCN1CCN(C(=O)C2CCOC2)c2ccccc21 (configuration not stated) | 21 |

| SMILES | cytotoxicity at 70.5 h [%] |
| --- | --- |
| CCOC(=O)c1ccccc1NC(=O)CN(C)Cc1ccccc1Cl | 3.31 |
| COCC1CCCCN1Cc1nc(-c2ccoc2)oc1C (configuration not stated) | -1.54 |
| O=C(NCCn1ccnc1)c1cc(F)cc(Br)c1 | -8.01 |
| CCNC(=O)CCC(=O)NCC1(O)CCC(C(C)(C)C)CC1 (configuration not stated) | -2.55 |
| CCc1oc(C(=O)N[C@@H]2c3ccccc3C[C@@H]2O)cc1CN1CCCC1 | -6.15 |
| CC(C)N(Cc1cccnc1)C(=O)CNc1ccc(C#N)cc1 | -12.5 |
| CN(CCc1ccccc1)c1cnn(Cc2ccccn2)c(=O)c1 | -4.29 |
| COc1ccc(C)cc1C(=O)NC1(C#N)CCOCC1 | -2.79 |
| Cn1ncc2c1CCCC2NCc1cccc(C(F)(F)F)c1 (configuration not stated) | -5.81 |
| Cc1noc(C)c1-c1nc(C2CCCN(C(=O)C(C)C)C2)ccc1CO (configuration not stated) | -2.96 |
| O=C(NC[C@H]1CC[C@H](c2ccnc3ncnn32)CC1)c1ccccn1 | -6.58 |
| O=C(Nc1ccccc1F)NC1(CO)CCOCC1 | -12.1 |
| CCn1ccc(C(=O)N2CCCC2c2nnc(-c3scnc3C)o2)n1 (configuration not stated) | -6.79 |
| CN(Cc1cccc(F)c1)C(=O)CN1CCOC(Cn2cccn2)C1 (configuration not stated) | -2.5 |
| Cc1cnn(CC2CCCN2C(=O)c2sccc2C#N)c1 (configuration not stated) | -2.76 |
| Cc1c[nH]c(CN(C)C(C(=O)O)c2c(F)cccc2Cl)n1 (configuration not stated) | 1.26 |
| Cc1cc(C(=O)N2CCc3ncc(CN4CCOCC4)n3CC2)no1 | 28.9 |
| CCc1c(C)sc2nc3n(CCN4CCCCC4)nc(SC)n3c(=O)c12 | 13.4 |
| C=C(C)COc1cccc(C(=O)N(C)Cc2cc(CC)no2)c1 | -3.37 |
| Nc1c(Cl)cnn1C1CCN(Cc2ccccc2)C1 (configuration not stated) | -3.84 |
| O=c1cc(-c2ccccc2)nc2n1CCCCC2 | 23.6 |
| Cc1occc1C(=O)N1CCC2(CCN(C(=O)c3cccnc3)C2)CC1 | 5.51 |
| CC(C)C1=NOC2(CCN(C(=O)C3CCCC3)CC2)C1 | -11.9 |

| SMILES | cytotoxicity at 70.5 h [%] |
| --- | --- |
| N#Cc1cccc(CN2CC[C@@H]3CN(c4ncccn4)CCO[C@@H]3C2)c1 | 21.7 |
| O=C1CCSCC(C(=O)N2CCC3(CC2)OCCO3)N1 (configuration not stated) | -14.2 |
| CC(C)NC(=O)CN1CCC(c2cccc(F)c2)C1 (configuration not stated) | 22.8 |
| CC(NC1CCN(CCc2ccncc2)CC1)c1cnn(C(C)C)c1 (configuration not stated) | -18 |
| CN(C)C(=O)CN1CCC2(CCCN(Cc3ccsc3)C2)C1=O (configuration not stated) | -15.6 |
| O=C(N[C@@H]1CN(Cc2c[nH]nc2-c2ccccc2)C[C@H]1O)c1cc[nH]n1 | -9.21 |
| O=C(N1CCOCC1)[C@@]12CCO[C@@H]1CCN(CC1CCCCC1)C2 | 27.8 |
| Cc1cccc(CN2CCN(c3nc(CO)cs3)CC2)c1 | -4.76 |
| CCCn1cnnc1-c1nc2c([nH]1)CC(c1ccc(Cl)cc1)CNC2=O (configuration not stated) | 8.16 |
| CN(CCc1ccncc1)c1cnn(C)c(=O)c1Br | -24.9 |
| CCCn1ncc(CN2C[C@@H]3CCCN3C[C@H]2CCSC)c1C | -1.67 |
| CC(NC(=O)Nc1cc(F)ccc1N1CCCCC1)c1nncn1C (configuration not stated) | -4.36 |
| COc1ccc(-c2ccnc(N)c2)c(OC)c1 | 13.7 |
| CCCn1nc(-c2nc(COC)no2)ccc1=O | -6.41 |
| CC(C)OCCCNC(=O)[C@@]12CNC[C@@H]1CN(S(C)(=O)=O)C2 | 13.6 |
| Cc1noc(C)c1-c1nc(C2CCCN(C(=O)CCN)C2)ccc1CO (configuration not stated) | -1.78 |
| Cn1cc(C(=O)N2C[C@H]3C[C@H](Oc4ccccc4)C[C@H]3C2)cn1 | -3.01 |
| CC(C)NC(=O)[C@H]1C[C@@H]2[C@@H](C1)OCCN2Cc1ccccn1 | -5.2 |
| Cc1csc(CNC(=O)NCC(O)c2ccc(F)cc2F)n1 (configuration not stated) | 5.96 |
| Cc1cc(C(=O)N2CCCC2c2nnc3n2CCCCC3)on1 (configuration not stated) | -2.64 |
| CC(=O)Nc1cc(CCC2CCN(C(=O)c3ccccn3)CC2)ccn1 | -14.2 |
| Cc1nc2c(c(NCC(c3ccccc3C)N(C)C)n1)CCNC2 (configuration not stated) | 25.9 |
| CCc1nc(CC(=O)N2CCOCC2c2ncon2)cs1 (configuration not stated) | -3.4 |

| SMILES | cytotoxicity at 70.5 h [%] |
| --- | --- |
| N#Cc1ccc(CN2CCN(C(=O)CCn3cncn3)CC2)cc1 | 6.05 |
| CCCN(CCC)C(=O)c1cnn(C)c1C | 9.54 |
| Cc1ccc(-c2noc(CCC(=O)NC(C)Cn3cccn3)n2)cc1 (configuration not stated) | -7.96 |
| COc1ncccc1C(=O)N1CCC(c2nnc(C3CC3)o2)CC1 | 4.57 |
| Cc1noc(C)c1CNC(C(=O)N1CCOCC1)C(C)C (configuration not stated) | -7.07 |
| COc1ccccc1CC1CCCN(CC(=O)NC2CC2)C1 (configuration not stated) | -8.21 |
| COCCN(CC(F)F)c1cc(C(F)(F)F)nc2ncnn12 | -7.29 |
| CC(Cn1cccn1)NCc1csc(-c2ncccn2)n1 (configuration not stated) | 3.56 |
| CSc1ccc(OC(C)C(=O)Nc2cc(C)n[nH]2)cc1 (configuration not stated) | -1.12 |
| Cc1ncc(CN(C)CCO)c2cc(C(=O)c3ccc(Br)cc3)oc12 | -15.5 |
| c1ccc(CCCn2ccnc2-c2cn(C3CCNCC3)nn2)nc1 | 22.4 |
| Cn1c(Cn2ccnc2)nnc1C1CCN(C(=O)c2ccccn2)CC1 | 5.03 |
| Cc1nc(CN2CCN(C(=O)CCc3ccco3)CC2)cs1 | -5.22 |
| COCc1nc(C(=O)N(Cc2ccccc2)CC(C)C(=O)O)cs1 (configuration not stated) | -4.63 |
| Cn1cc(CN2CCC3(CC2)CN(C(=O)c2cnccn2)CCO3)cn1 | -4.88 |
| Cc1ncsc1CN1CCO[C@H]2[C@H](Oc3ccccn3)CC[C@@H]21 | -1.48 |
| COc1ccc(Cl)cc1CN(C)CC(=O)/N=c1\cc[nH]n1C(C)C1CC1 (configuration not stated) | 20.8 |
| O=C(c1cn(CCN2CCCCC2)nn1)N1CCSCC1 | -1.47 |
| CCc1cc(N(C)Cc2[nH]nc3c2CCC3)nc(N2CCOCC2)n1 | -15.5 |
| Cc1cccc(N2CCCC3(C2)CN(c2nncs2)CCO3)c1 (configuration not stated) | 16.1 |
